Data on 16 compounds can be found in patent US11760775B2, “Steroids and protein-conjugates thereof” (Regeneron Pharmaceuticals, Inc., priority 2016, dated 2023).

The target of assay [1] is Glucocorticoid Receptor (GR) (Homo sapiens (Human), UniProt P04150). Briefly: LanthaScreen TR-FRET GR Competitive Binding Assay (cell free). (In TR-FRET formats the signal depends on donor and acceptor labels being close together.)
Assay [2] deals with GR activation in 293/PRLR/GRE-Luc cells (HEK293/9xUAS-Luc2P/pBind-GR/PRLR-HA high cells). Briefly: GR co-activator luciferase reporter cell based assay in 293/PRLR/GRE-Luc cells. Set-up: species or system human. As to conditions: for Emax: HEK293, read-out: Activation (fold activation relative to Budesonide) in HEK293/9xUAS-Luc2P/pBind-GR/PRLR-HA high cells; for HEK293/9xUAS-Luc2P/pBind-GR/PRLR-HA high cells activation relative to Budesonide: fold activation vs Budesonide.
Excerpt: Bioassays described herein were used to assess the efficacy of free steroids and anti-PRLR-ncADCs. In one example, the bioassay assessed the activity of steroids, after internalization of a site-specific anti-PRLR-GC steroid ADC into cells, to bind to pBIND-GR and subsequent luciferase reporter activation. […] Then such stable cell line was further transfected with a chimeric receptor consisting of a GR ligand binding domain fused to the yeast Gal4 DNA binding domain (pBind-GR, Promega Cat #E1581), and a Gal4 upstream activator sequence (9×Gal4UAS-Luc2P) that drives luciferase gene expression.
(§1) For this assay, 20,000 cells were seeded in 96-well plates in media containing DMEM supplemented with 10% FBS and pencillin/streptomycin (complete media) and grown overnight at 37° C. in 5% CO2. […] Luciferase activity was determined by addition of OneGlo™ reagent (Promega, Cat #E6130) and relative light units (RLUs) were measured on a Victor luminometer (Perkin Elmer). The EC50 values were determined from a four-parameter logistic equation over a 10 point response curve using GraphPad Prism.
as §1, with “One-Glo™” for “OneGlo™”, “10-point” for “10 point”, “Prism. […] Minimal activation in this assay is defined as less than 10% of the maximal activation measured with the free payload.” for “Prism.”
Background: A reporter such as luciferase makes a cellular process visible.

Setting [3] is: Homo sapiens, 72 hours of incubation.
Setting [4] is: Homo sapiens, HEK293, 72 hours of incubation, read-out: HEK293/9xUAS-Luc2P/pBind-GR/PRLR-HA high cells EC50.
Setting [5] is: 293/PRLR/GRE-Luc cells, 72 hours.
Where [6] appears, read: Homo sapiens, HEK293, read-out: HEK293/9xUAS-Luc2P/pBind-GR/PRLR-HA high cells EC50.

Counter-ions that a name gives are not always drawn. Like-named read-outs stand apart in the source and are kept apart here.

Sequence of Glucocorticoid Receptor (GR) (P04150 524-758): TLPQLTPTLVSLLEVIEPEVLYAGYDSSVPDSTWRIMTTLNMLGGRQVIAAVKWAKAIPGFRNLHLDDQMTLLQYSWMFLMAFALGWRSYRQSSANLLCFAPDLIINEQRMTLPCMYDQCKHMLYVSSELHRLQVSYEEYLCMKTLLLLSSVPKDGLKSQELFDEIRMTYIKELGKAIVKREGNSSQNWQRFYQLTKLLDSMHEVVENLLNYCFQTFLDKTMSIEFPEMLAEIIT

Turning to `C[C@]12C=CC(=O)C=C1CC[C@@H]1[C@@H]2[C@@H](O)C[C@@]2(C)[C@H]1C[C@H]1O[C@@H](c3ccc(N)cc3)O[C@]12C(=O)CO` [7-1 R, (1S,2S,4R,6R,8S,9S,11S,12S,13R)-6-(4-Aminophenyl)-11-hydroxy-8-(2-hydroxyacetyl)-9,13-dimethyl-5,7-dioxapentacyclo[10.8.0.0^2,90.0^4,80.0^13,18]icosa-14,17-dien-16-one], in assay [1], the concentration for half-maximal inhibition (IC50) – broadly, the concentration that inhibits the measured activity by half – lay in the range of 10 to 100 nM. Further, the Emax in assay [2] (setting [3]) was over 75%. In addition, the EC50 in assay [2] (setting [4]) was under 10 nM.
Taken in the same sequence, the figures for `C[C@]12C=CC(=O)C=C1CC[C@@H]1[C@@H]2[C@@H](O)C[C@@]2(C)[C@H]1C[C@H]1O[C@H](c3ccc(N)cc3)O[C@]12C(=O)CO` [7-1 S, (1S,2S,4R,6S,8S,9S,11S,12S,13R)-6-(4 Aminophenyl)-11-hydroxy-8-(2-hydroxyacetyl)-9,13-dimethyl-5,7-dioxapentacyclo[10.8.0.0^2,90.0^4,80.0^13,18]icosa-14,17-dien-16-one] were under 10 nM, 20 to 75% and over 100 nM.
`C[C@]12C=CC(=O)C=C1CC[C@@H]1[C@@H]2[C@@H](O)C[C@@]2(C)[C@H]1C[C@H]1OC(Cc3ccc(N)cc3)O[C@]12C(=O)CO` (stereo partly drawn) [7-2 R/S, (1S,2S,4R,8S,9S,11S,12S,13R)-6[(4-Aminophenyl)methyl]-11-hydroxy-8-(2-hydroxyacetyl)-9,13-dimethyl-5,7-dioxapentacyclo[10.8.0.0^2,90.0^4,80.0^13,18]icosa-14,17-dien-16-one] registered an IC50 in assay [1] of under 10 nM. In addition, in assay [2] (setting [5]), the “Fold Activation” value was “Full”. The EC50 was 10 to 100 nM in assay [2] (Homo sapiens, HEK293, 72 h, read-out: EC50) and under 10 nM in assay [2] (setting [4]). The Emax in assay [2] (setting [3]) is under 20%.
For the compound `CC(C)C(=O)OCC(=O)[C@@]12O[C@H](c3ccc(N)cc3)O[C@@H]1C[C@H]1[C@@H]3CCC4=CC(=O)C=C[C@]4(C)[C@H]3[C@@H](O)C[C@@]12C` [8-1 R, 2[(1S,2S,4R,8S,9S,11S,12S,13R)-6-(4-Aminophenyl)-11-hydroxy-9,13-dimethyl-16-oxo-5,7-dioxapentacyclo[10.8.0.0^2,90.0^4,80.0^13,18]icosa-14,17-dien-8-yl]-2-oxoethyl 2-methylpropanoate], the “Activation (fold activation relative to Budesonide) in HEK293/9xUAS-Luc2P/pBind-GR/PRLR-HA high cells” value in assay [2] (72 hours of incubation) is “full activation”. Moreover, the EC50 in assay [2] (setting [4]) lay within 10 to 100 nM.
The compound `CC(C)C(=O)OCC(=O)[C@@]12OC(Cc3ccc(N)cc3)O[C@@H]1C[C@H]1[C@@H]3CCC4=CC(=O)C=C[C@]4(C)[C@H]3[C@@H](O)C[C@@]12C` (stereo partly drawn) [8-2 R/S, 2[(1S,2S,4R,8S,9S,11S,12S,13R)-6[(4-Aminophenyl)methyl]-11-hydroxy-9,13-dimethyl-16-oxo-5,7-dioxapentacyclo[10.8.0.0^2,90.0^4,80.0^13,18]icosa-14,17-dien-8-yl]-2-oxoethyl 2-methylpropanoate] gave a concentration for half-maximal inhibition (IC50) in assay [1] of under 10 nM. In assay [2] (setting [3]), the Emax is under 20%. The EC50 in assay [2] (setting [4]) is over 100 nM.
Taken in the same sequence, the figures for `CC(C)C(=O)OCC(=O)[C@@]12OC(CCN)O[C@@H]1C[C@H]1[C@@H]3CCC4=CC(=O)C=C[C@]4(C)[C@H]3[C@@H](O)C[C@@]12C` (stereo partly drawn) [8-3 R/S, 2[(1S,2S,4R,8S,9S,11S,12S,13R)-6-(2-Aminoethyl)-11-hydroxy-9,13-dimethyl-16-oxo-5,7-dioxapentacyclo[10.8.0.0^2,90.0^4,8. 0^13,18]icosa-14,17-dien-8-yl]-2-oxoethyl 2-methylpropanoate] were under 10 nM, under 20% and over 100 nM.
In assay [1], `CCCC1O[C@@H]2C[C@H]3[C@@H]4CCC5=CC(=O)C=C[C@]5(C)[C@H]4[C@@H](O)C[C@]3(C)[C@]2(C(=O)CN)O1` (stereo partly drawn) [11-1 R/S, (1S,2S,4R,8S,9S,11S,12S,13R)-8-(2-Aminoacetyl)-11-hydroxy-9,13-dimethyl-6-propyl-5,7-dioxapentacyclo[10.8.0.0^2,9. 0^4,80.0^13,18]icosa-14,17-dien-16-one] gave a half-inhibitory concentration (IC50) of 10 to 100 nM. Besides, in assay [2] (setting [3]), the Emax is over 75%. Further, the EC50 in assay [2] (setting [4]) was under 10 nM.
Taken in the same sequence, the figures for `CCCC1O[C@@H]2C[C@H]3[C@@H]4CCC5=CC(=O)C=C[C@]5(C)[C@H]4[C@@H](O)C[C@]3(C)[C@]2(C(=O)CNC)O1` (stereo partly drawn) [11-2 R/S, (1S,2S,4R,8S,9S,11S,12S,13R)-11-hydroxy-9,13-dimethyl-8-[2-(methylamino)acetyl]-6-propyl-5,7-dioxapentacyclo[10.8.0.0^2,90.0^4,80.0^13,18]icosa-14,17-dien-16-one] were 10 to 100 nM, over 75% and over 100 nM.
Taken in the same sequence, the figures for `CCCC1O[C@@H]2C[C@H]3[C@@H]4CCC5=CC(=O)C=C[C@]5(C)[C@H]4[C@@H](O)C[C@]3(C)[C@]2(C(=O)CN(C)C)O1` (stereo partly drawn) [11-3 R/S, (1S,2S,4R,8S,9S,11S,12S,13R)-8-[2-(Dimethylamino)acetyl]-11-hydroxy-9,13-dimethyl-6-propyl-5,7-dioxapentacyclo[10.8.0.0^2,90.0^4,80.0^13,18]icosa-14,17-dien-16-one] were under 10 nM, 20 to 75% and 10 to 100 nM.
Taken in the same sequence, the figures for `CCC[C@@H]1O[C@@H]2C[C@H]3[C@@H]4CCC5=CC(=O)C=C[C@]5(C)[C@H]4[C@@H](O)C[C@]3(C)[C@]2(C(=O)COc2ccc(N)cc2)O1` [11-5 R, (1S,2S,4R,8S,9S,11S,12S,13R)-8-[2-(4-Aminophenoxy)acetyl]-11-hydroxy-9,13-dimethyl-6-propyl-5,7-dioxapentacyclo[10.8.0.0^2,90.0^4,80.0^13,18]icosa-14,17-dien-16-one] were 10 to 100 nM, over 75% and under 10 nM.
For the compound `CCCC1O[C@@H]2C[C@H]3[C@@H]4C[C@H](F)C5=CC(=O)C=C[C@]5(C)[C@@]4(F)[C@@H](O)C[C@]3(C)[C@]2(C(=O)CNc2ccc(N)cc2)O1` (stereo partly drawn) [Compound 5-I, (1S,2S,4R,8S,9S,11S,12R,13S,19S)-8-{2-[(4-Aminophenyl)amino]acetyl}-12,19-difluoro-11-hydroxy-9,13-dimethyl-6-propyl-5,7-dioxapentacyclo[10.8.0.0^2,90.0^4,80.0^13,18]icosa-14,17-dien-16-one Trifluoroacetate], the EC50 in assay [2] (setting [6]) was under 10 nM. Further, the “HEK293/9xUAS-Luc2P/pBind-GR/PRLR-HA high cells activation relative to Budesonide” value in assay [2] was “Full”.
For `CCCC1O[C@@H]2C[C@H]3[C@@H]4C[C@H](F)C5=CC(=O)C=C[C@]5(C)[C@@]4(F)[C@@H](O)C[C@]3(C)[C@]2(C(=O)COc2ccc(N)c(F)c2)O1` (stereo partly drawn) [Compound 6-III, (1S,2S,4R,8S,9S,11S,12R,13S,19S)-8-[2-(4-Amino-3-fluorophenoxy)acetyl]-12,19-difluoro-11-hydroxy-9,13-dimethyl-6-propyl-5,7-dioxapentacyclo[10.8.0.0^2,90.0^4,8.0^13,18]icosa-14,17-dien-16-one], the EC50 in assay [2] (setting [6]) is under 10 nM.
`C[C@]12C=CC(=O)C=C1CC[C@@H]1[C@@H]2[C@@H](O)C[C@@]2(C)[C@H]1C[C@H]1O[C@@H](c3ccc(N)cc3)O[C@]12C(=O)CO` [Compound 7-1R]: the GRE-Luc activation entry in assay [2] (setting [5]) is reported as “full GRE-Luc activation”. Moreover, in assay [2] (293/PRLR/GRE-Luc cells, 72 hours, read-out: EC50 of GRE-Luc activation), the EC50 was in the range of 10 to 100 nM.
On to `CC(=O)OCC(=O)[C@@]1(OC(C)=O)[C@@H](C)C[C@H]2[C@@H]3C[C@H](F)C4=CC(=O)C=C[C@]4(C)[C@@]3(F)[C@@H](O)C[C@@]21C` [Diflorasone, diflorasone, reference compound], for which the Emax in assay [2] (setting [3]) is over 75%. Besides, the EC50 in assay [2] (setting [4]) is under 10 nM.
For `C[C@@H]1C[C@H]2[C@@H]3CCC4=CC(=O)C=C[C@]4(C)[C@@]3(F)[C@@H](O)C[C@]2(C)[C@@]1(O)C(=O)CO` [compound 1c, dexamethasone, reference compound], the EC50 in assay [2] (293/PRLR/GRE-Luc cells, 72 hours, ADCs with or without cyclodextrin linkers, read-out: EC50) amounted to 8.4 nM. The “Maximal Activation” value in assay [2] (293/PRLR/GRE-Luc cells, 72 hours, relative to free payload) was “Full (Full activation in this assay is defined between 90 and 100% of the maximal activation measured with the free payload)”.
On to “(6S,8S,9S,10R,11S,13S,14S,17R)-17-(2-(4-Aminophenoxy)acetyl)-11,17-dihydroxy-6,10,13-trimethyl-6,7,8,9,10,11,12,13,14,15,16,17-dodecahydro-3H-cyclopenta[a]phenanthren-3-one [Compound 6-VI]”, for which, in assay [2], the “HEK293/9xUAS-Luc2P/pBind-GR/PRLR-HA high cells activation relative to Budesonide” value is “Full”. In assay [2] (read-out: HEK293/9xUAS-Luc2P/pBind-GR/PRLR-HA high cells EC50), the EC50 was under 10 nM.
